The source of these data is patent US20090275648A1, “MACROCYCLIC GHRELIN RECEPTOR ANTAGONISTS AND INVERSE AGONISTS AND METHODS OF USING THE SAME” (priority 2005, published 2009).

Assay [1] concerns the target T1, ghrelin receptor (Homo sapiens, UniProt Q92847). Briefly: Inverse agonist assay, Example 4. Format: cell-based. To be noted: inverse agonist activity. The source says:
The inverse agonist activity at the ghrelin receptor for compounds of the invention can be determined using the methods described in Intl. Pat. Appl. Publ. No. WO 2004/056869 and Holst, B.; Cygankiewicz, A.; Halkjaer, T.; Ankersen, A.; Schwartz, T. W. High constitutive signaling of the ghrelin receptor—identification of a potent inverse agonist. Mol. Endocrinol. 2003, 17, 2201-2210.

Assay [2] has as its target T1, ghrelin receptor. Briefly: Aequorin functional assay (ghrelin receptor), Example 3. Format: cell-based. Further details: host or cells: CHO-K1 cells co-expressing Gα16 and mitochondrially targeted Aequorin. To be noted: antagonist testing vs ghrelin at EC80 (3.7 nM). The text has this: The functional activity of compounds of the invention found to bind to the GHS-R1a receptor can be determined using the method described below. (LePoul, E.; et al. Adaptation of aequorin functional assay to high throughput screening. J. Biomol. Screen. 2002, 7, 57-65; Bednarek, M. A.; et al. Structure-function studies on the new growth hormone-releasing peptide ghrelin: minimal sequence of ghrelin necessary for activation of growth hormone secretagogue receptor 1a. J. Med. Chem. 2000, 43, 4370-4376; Palucki, B. L.; et al. Spiro(indoline-3,4′-piperidine) growth hormone secretagogues as ghrelin mimetics. Bioorg. Med. Chem. Lett. 2001, 11, 1955-1957).
Membranes were prepared using AequoScreen™ (EUROSCREEN, Belgium) cell lines expressing the human ghrelin receptor (cell line ES-410-A; receptor accession #60179). This cell line is constructed by transfection of the human ghrelin receptor into CHO-K1 cells co-expressing Gα16 and the mitochondrially targeted Aequorin (Ref #ES-WT-A5). • 1. Ghrelin (reference agonist; Bachem, #H-4864) • 2. Assay buffer: DMEM (Dulbecco's Modified Eagles Medium) containing 0.1% BSA (bovine serum albumin; pH 7.0. • 3. Coelenterazine (Molecular Probes, Leiden, The Netherlands)
Stock solutions of compounds (10 mM in 100% DMSO) were provided frozen on dry ice and stored at −20° C. prior to use. From the stock solution, mother solutions were made at a concentration of 500 μM 20-fold dilution in 26% DMSO. Assay plates were then prepared by appropriate dilution in DMEM medium containing 0.1% BSA. Under these conditions, the maximal final DMSO concentration in the assay was <0.6%.
AequoScreen™ cells were collected from culture plates with Ca^2+ and Mg^2+-free phosphate buffered saline (PBS) supplemented with 5 mM EDTA, pelleted for 2 minutes at 1000×g, re-suspended in DMEM-Ham's F12 containing 0.1% BSA at a density of 5×10^6 cells/ml and incubated overnight at room temperature in the presence of 5 μM coelenterazine. After loading, cells were diluted with assay buffer to a concentration of 5×10^5 cells/ml.
For agonist testing, 50 μl of the cell suspension was mixed with 50 μl of the appropriate concentration of test compound or ghrelin (reference agonist) in 96-well plates (duplicate samples). Ghrelin (reference agonist) is tested at several concentrations concurrently with the test compounds in order to validate the experiment. The emission of light resulting from receptor activation in response to ghrelin or test compounds was recorded using the Hamamatsu FDSS 6000 reader (Hamamatsu Photonics K.K., Japan).
For antagonist testing, an approximate EC80 concentration of ghrelin (i.e. 3.7 nM; 100 μL) was injected onto the cell suspension containing the test compounds (duplicate samples) 15-30 minutes after the end of agonist testing and the consequent emission of light resulting from receptor activation was measured as described in the paragraph above.
Results are expressed as Relative Light Units (RLU). […] For agonist testing, results for each concentration of test compound were expressed as percent activation relative to the signal induced by ghrelin at a concentration equal to the EC80 (i.e. 3.7 nM). EC50, Hill slope and % Emax values are reported.
For antagonist testing, results for each concentration of test compound were expressed as percent inhibition relative to the signal induced by ghrelin at a concentration equal to the EC80.

Molecules are shown by their SMILES. pIC50: −log10 of the molar value.

T1 sequence (Q92847 whole entry): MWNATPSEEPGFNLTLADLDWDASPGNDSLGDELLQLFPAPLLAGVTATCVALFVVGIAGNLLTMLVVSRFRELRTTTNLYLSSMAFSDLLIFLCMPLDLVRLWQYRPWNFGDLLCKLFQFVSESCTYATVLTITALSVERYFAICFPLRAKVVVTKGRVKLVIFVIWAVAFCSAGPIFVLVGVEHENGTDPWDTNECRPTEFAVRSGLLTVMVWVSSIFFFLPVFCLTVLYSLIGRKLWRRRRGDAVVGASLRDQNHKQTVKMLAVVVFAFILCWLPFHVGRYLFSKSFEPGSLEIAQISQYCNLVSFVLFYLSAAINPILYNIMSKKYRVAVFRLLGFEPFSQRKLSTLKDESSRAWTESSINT

Take `CCC(C)[C@@H]1NCCOc2ccccc2/C=C/CNC(=O)[C@@H](Cc2ccccc2)NC(=O)[C@H](C(C)O)N(C)C1=O` (some centres unmarked) [Compound 502]: the pIC50 on ghrelin receptor [1] and against ghrelin receptor [2] was 7.00 to 9.00 in each case.
